This passage reports TGI and GI50 results from PubChem BioAssay (NCI).

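The compound was tested at five concentrations on cells cultured in 96-well plates, with a 48-hour exposure period. GI50 = concentration required for 50% inhibition of growth. TGI denotes the concentration required for complete inhibition of growth.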

Test systems include COLO 205 colon; HCT-116 colon; IGROV1 ovarian; MDA-MB-231 breast; OVCAR-5 ovarian; OVCAR-8 ovarian; SK-OV-3 ovarian; SW-620 colon; U251 CNS; HS 578T breast.
Common to all, as to assay: DTP human tumour cell line panel, 48 h

As a reminder, the TGI is the concentration giving total growth inhibition. Higher therefore signals less potent growth arrest. Consider `Oc1ccc(/C=N/NC(=S)Nc2cccnc2)nc1`, for which the TGI was more than 100 µM with COLO 205 colon; more than 100 µM in the test on HCT-116 colon; more than 100 µM with IGROV1 ovarian; more than 31.6 µM in the test on MDA-MB-231 breast; more than 100 µM in the test with OVCAR-5 ovarian; 12.6 µM in the test on OVCAR-8 ovarian. In addition, the values for the TGI in the test with SK-OV-3 ovarian, in the test with SW-620 colon and in the test on U251 CNS were more than 100 µM, more than 100 µM and more than 67 µM, respectively.
As a reminder, the GI50 is the concentration that inhibits growth by half. `Nc1cc(N)c2nc(-c3ccccc3)c(NCc3ccc(Cl)c(Cl)c3)nc2c1`: the GI50 with COLO 205 colon is 16.9 µM; in the test with HCT-116 colon it was 11500 nM; with HS 578T breast, 5.9 µM; in the test with IGROV1 ovarian, 1970 nM; with MDA-MB-231 breast, 1580 nM; in the test with OVCAR-5 ovarian it was 23.8 µM. The GI50 was 3.41 µM in the test with OVCAR-8 ovarian, 18.5 µM in the test on SK-OV-3 ovarian and 3.26 µM with SW-620 colon. Moreover, the TGI was determined as 33.6 µM with COLO 205 colon; 24.1 µM in the test with HCT-116 colon; 46.7 µM with HS 578T breast; 5.95 µM with IGROV1 ovarian; 4.45 µM in the test on MDA-MB-231 breast; 40.7 µM with OVCAR-5 ovarian. Besides, the TGI in the test on OVCAR-8 ovarian came out at 13.5 µM; in the test on SK-OV-3 ovarian it was 35.9 µM; in the test on SW-620 colon, 9.88 µM.
Regarding `COc1cc(NCCC2CCCCN2)c2ncccc2c1OC` (stereo not drawn), the GI50 with COLO 205 colon was 10 µM; in the test with HCT-116 colon, 1940 nM; with HS 578T breast, 4.34 µM; in the test with MDA-MB-231 breast, 3020 nM; in the test with OVCAR-5 ovarian, 19.1 µM; in the test on OVCAR-8 ovarian, 6.49 µM. In addition, the GI50 in the test on SK-OV-3 ovarian was 20.3 µM; in the test with SW-620 colon, 5.5 µM; with U251 CNS, 4.12 µM. Besides, the TGI is 24.2 µM with COLO 205 colon; 3.7 µM in the test with HCT-116 colon; 31.1 µM with HS 578T breast; 12.5 µM with MDA-MB-231 breast; 62.7 µM with OVCAR-5 ovarian; 59.2 µM with OVCAR-8 ovarian. The concentration for total growth inhibition (TGI) was determined as 38.9 µM with SK-OV-3 ovarian, 21.2 µM with SW-620 colon and 16 µM with U251 CNS.
As for `CCc1ccccc1NC(=O)C(=O)C(C#N)c1c(Cl)cccc1Cl` (stereo not drawn), the total growth inhibition concentration (TGI) in the test on HCT-116 colon, in the test on IGROV1 ovarian, in the test with SK-OV-3 ovarian, in the test with SW-620 colon and in the test with U251 CNS was more than 100 µM each time.
Regarding `NCCCNc1nc2ccccc2c2c(=O)c3cc(F)cc(Cl)c3sc12`, the GI50 in the test with COLO 205 colon is 1.92 µM; in the test with HCT-116 colon, 1720 nM; in the test with HS 578T breast, 1.68 µM; in the test with IGROV1 ovarian, 1580 nM; in the test on MDA-MB-231 breast, 1580 nM; with OVCAR-5 ovarian, 1.65 µM. The GI50 in the test on OVCAR-8 ovarian was 1.81 µM; in the test on SW-620 colon it was 1.7 µM; with U251 CNS it was 1.72 µM. For the same molecule, the TGI with COLO 205 colon was 4.41 µM; with HCT-116 colon it was 3.12 µM; in the test with HS 578T breast it was 3.62 µM; in the test with IGROV1 ovarian, 3.12 µM; with MDA-MB-231 breast, 3.07 µM; in the test on OVCAR-5 ovarian, 3.1 µM. For the same molecule, the figures for the TGI in the test on OVCAR-8 ovarian, in the test with SW-620 colon and in the test on U251 CNS were 3.83 µM, 3.28 µM and 3.37 µM, respectively.
Turning to `O=C(O)CCSC(=O)Nc1ccccc1`, the TGI in the test with COLO 205 colon, with HCT-116 colon, in the test on IGROV1 ovarian, in the test with OVCAR-5 ovarian, with OVCAR-8 ovarian and in the test with SW-620 colon was more than 100 µM each time. The same molecule had a TGI in the test on U251 CNS of more than 100 µM.
In the case of `O=C1CCc2ccc(O)c(c2)Oc2ccc(cc2)[C@@H]2O[C@@H]2CO1`, the concentration for total growth inhibition (TGI) with COLO 205 colon is more than 100 µM; in the test with HCT-116 colon, more than 100 µM; in the test on IGROV1 ovarian it was 50.5 µM; in the test on OVCAR-5 ovarian it was more than 100 µM; with OVCAR-8 ovarian, more than 100 µM; in the test on SK-OV-3 ovarian, more than 100 µM. The total growth inhibition concentration (TGI) with SW-620 colon and in the test with U251 CNS was more than 100 µM in each case.
In the case of `Cc1ccc(NC(=O)CCC(=O)C2Cc3ccccc3C2=O)cc1C` (stereo not drawn), the TGI in the test on COLO 205 colon, in the test with HCT-116 colon, in the test with IGROV1 ovarian, in the test with OVCAR-5 ovarian, in the test with OVCAR-8 ovarian and in the test on SK-OV-3 ovarian was more than 100 µM each time. The total growth inhibition concentration (TGI) in the test on SW-620 colon and in the test with U251 CNS was more than 100 µM in each case.
On to `Cc1cn2c(/C=C3\C(=O)N(C)c4ccc(Cl)cc43)c(C)nc2s1`, for which the GI50 is 3.47 µM with COLO 205 colon; 2550 nM in the test on HCT-116 colon; 8.28 µM in the test on HS 578T breast; 2990 nM with IGROV1 ovarian; 4500 nM with MDA-MB-231 breast; 3.16 µM in the test with OVCAR-5 ovarian. Besides, the figures for the GI50 in the test with OVCAR-8 ovarian, in the test with SW-620 colon and in the test with U251 CNS were 5.5 µM, 4.27 µM and 3.27 µM, respectively. Further, the TGI with COLO 205 colon is more than 100 µM; with HCT-116 colon it was 14.6 µM; in the test with HS 578T breast, more than 100 µM; in the test with IGROV1 ovarian it was more than 100 µM; in the test with MDA-MB-231 breast, 23.5 µM; in the test with OVCAR-5 ovarian, 12.2 µM. Besides, the total growth inhibition concentration (TGI) was more than 100 µM with OVCAR-8 ovarian, more than 100 µM in the test on SW-620 colon and 12.3 µM in the test on U251 CNS.
As to `Cc1ccc(/C(=C/C=C(C#N)C#N)Sc2nc3ccccc3s2)cc1`, the GI50 is 3.84 µM with COLO 205 colon; 2470 nM in the test with HCT-116 colon; 9.86 µM in the test on HS 578T breast; 4780 nM in the test on IGROV1 ovarian; 2180 nM in the test on MDA-MB-231 breast; 24.1 µM in the test on OVCAR-5 ovarian. Further, the figures for the GI50 with OVCAR-8 ovarian, with SK-OV-3 ovarian and in the test on SW-620 colon were 4.35 µM, 14.1 µM and 2.42 µM, respectively. Also, the TGI was 16 µM in the test on COLO 205 colon; 6.3 µM in the test on HCT-116 colon; 56.1 µM in the test on HS 578T breast; 29.8 µM in the test with IGROV1 ovarian; 5.56 µM with MDA-MB-231 breast; 42.1 µM with OVCAR-5 ovarian. Moreover, the TGI in the test on OVCAR-8 ovarian stood at 65.6 µM; in the test with SK-OV-3 ovarian, 30 µM; in the test on SW-620 colon it was 5.73 µM.
For the molecule `C=CCC1C(=O)CC2(C)C(CC=C)C(=O)CC12C` (stereo not drawn), the TGI in the test on COLO 205 colon, in the test with HCT-116 colon, in the test on IGROV1 ovarian, with OVCAR-5 ovarian, with OVCAR-8 ovarian and in the test with SK-OV-3 ovarian was more than 100 µM each time. Moreover, the total growth inhibition concentration (TGI) in the test with SW-620 colon and in the test with U251 CNS was more than 100 µM throughout.
Take `O=C(OCc1ccccc1)n1cccc1`: the total growth inhibition concentration (TGI) in the test with COLO 205 colon, in the test with HCT-116 colon, in the test on IGROV1 ovarian, in the test with OVCAR-5 ovarian, in the test on OVCAR-8 ovarian and in the test with SK-OV-3 ovarian was more than 100 µM in each case. The TGI with SW-620 colon and in the test with U251 CNS was more than 100 µM each time.
